Structures can show the parent of a compound that is named as a salt.
System: IL-2 production
Assay: Inhibition of IL-2 production in PHA-activated Jurkat cells (ELISA)
Assay type: cell-based
Settings: Homo sapiens, Jurkat, 20 h, PHA 2.5 μg/mL, IL-2 ELISA
Description: Jurkat cells were placed in a 96 well plate (0.5 million cells per well in 1% FBS medium) then a test compound of this invention was added at different concentrations. After 10 minutes, the cells were activated with PHA (final concentration 2.5 μg/mL) and incubated for 20 hours at 37° C. under CO2. The final volume was 200 μL. Following incubation, the cells were centrifuged and the supernatants collected and stored at −70° C. prior to assaying for IL-2 production. A commercial ELISA kit (IL-2 Eli-pair, Diaclone Research, Besancon, France) was used to detect production of IL-2, from which dose response curves were obtained.

| Compound | IC50 [nM] |
| --- | --- |
| O=C(Nc1c(F)cccc1F)c1ncc(-c2cccc(C(F)(F)F)c2)s1 [Compound 130, N-(2,6-difluorophenyl)-5-(3-(trifluoromethyl)phenyl)thiazole-2-carboxamide] | 100 to 200 |
| O=C(Nc1c(F)cccc1F)c1ncc(-c2cc(C(F)(F)F)ccc2Cl)s1 [Compound 129, 5-(2-chloro-5-(trifluoromethyl)phenyl)-N-(2,6-difluorophenyl)thiazole-2-carboxamide] | < 30 |
| Cc1cnccc1C(=O)Nc1nc(C2CC2)c(-c2cccc(C(F)(F)F)c2)s1 [Compound 53, N-(4-cyclopropyl-5-(3-(trifluoromethyl)phenyl)thiazol-2-yl)-3-methylisonicotinamide] | 50 to 100 |
| Cc1nc(NC(=O)c2c(F)cccc2F)sc1-c1ccncc1 [Compound 54, 2,6-Difluoro-N-(4-methyl-5-(pyridin-4-yl)thiazol-2-yl)benzamide hydrobromide] | > 1000 |
| Cc1nc(C(=O)Nc2c(F)cccc2F)sc1-c1cccc(-c2nnco2)c1 [Compound 118, 5-(3-(1,3,4-oxadiazol-2-yl)phenyl)-N-(2,6-difluorophenyl)-4-methylthiazole-2-carboxamide] | 200 to 500 |
| Cc1cnccc1NC(=O)c1nc(C)c(-c2cccc(C(F)(F)F)c2)s1 [Compound 120, 4-methyl-N-(3-methylpyridin-4-yl)-5-(3-(trifluoromethyl)phenyl)thiazole-2-carboxamide] | > 1000 |
| Cc1nc(NC(=O)c2c(F)cccc2F)sc1-c1cccc(C#N)c1 [Compound 13, N-[5-(3-Cyano-phenyl)-4-methyl-thiazol-2-yl]-2,6-difluoro-benzamide] | 100 to 200 |
| COC(=O)c1cccc(-c2sc(C(=O)Nc3c(F)cccc3F)nc2C)c1 [Compound 117, methyl 3-(2-(2,6-difluorophenylcarbamoyl)-4-methylthiazol-5-yl)benzoate] | 100 to 200 |
| Cc1cnccc1NC(=O)c1ncc(-c2cc(-c3nccs3)ccc2C)s1 [Compound 133, 5-(2-methyl-5-(thiazol-2-yl)phenyl)-N-(3-methylpyridin-4-yl)thiazole-2-carboxamide] | > 1000 |

More lines, now with the values ahead:

| IC50 [nM] | Compound |
| --- | --- |
| > 1000 | O=C(Nc1nc(C2=NCCN2)c(-c2cccc(C(F)(F)F)c2)s1)c1c(F)cccc1F [Compound 77, N-(4-(4,5-Dihydro-1H-imidazol-2-yl)-5-(3-(trifluoromethyl)phenyl)thiazol-2-yl)-2,6-difluorobenzamide] |
| < 30 | O=C(Nc1nc(-c2ccccn2)c(-c2cccc(C(F)(F)F)c2)s1)c1c(F)cccc1F [Compound 107, 2,6-Difluoro-N-(4-(pyridin-2-yl)-5-(3-(trifluoromethyl)phenyl)thiazol-2-yl)benzamide] |
| 200 to 500 | O=C(Nc1nc(-c2cc[nH]n2)c(-c2cccc(C(F)(F)F)c2)s1)c1c(F)cccc1F [Compound 100, N-(4-(1H-Pyrazol-3-yl)-5-(3-(trifluoromethyl)phenyl)thiazol-2-yl)-2,6-difluorobenzamide] |
| > 1000 | CN(C)c1ccc(-c2nc(NC(=O)c3c(F)cccc3F)sc2-c2cccc(C(F)(F)F)c2)cc1 [Compound 110, N-(4-(4-(Dimethylamino)phenyl)-5-(3-(trifluoromethyl)phenyl)thiazol-2-yl)-2,6-difluorobenzamide] |
| > 1000 | O=C(Nc1nc(CCl)c(-c2cccc(C(F)(F)F)c2)s1)c1c(F)cccc1F [Compound 70, N-(4-(Chloromethyl)-5-(3-(trifluoromethyl)phenyl)thiazol-2-yl)-2,6-difluorobenzamide] |
| 50 to 100 | O=C(Nc1nc(-c2ncco2)c(-c2cccc(C(F)(F)F)c2)s1)c1c(F)cccc1F [Compound 91, 2,6-difluoro-N-(4-(oxazol-2-yl)-5-(3-(trifluoromethyl)phenyl)thiazol-2-yl)benzamide] |

Source: patent publication US8455658B2, “Thiazole and thiadiazole compounds for inflammation and immune-related uses” (Synta Pharmaceuticals Corp., priority 2006, dated 2013)
